Assay results from US5086053A, “Derivatives of 1,3,4-thiadiazole, a method of obtaining them and pharmaceutical compositions containing them” (Sanofi, priority 1988, dated 1992).
pIC50: −log10 of the molar value. Where a name gives a salt, the structure may show the parent alone.

target: T1, type M2 muscarinic cholinergic receptor (Cavia porcellus, UniProt H0VRN8); assay: Affinity for type M2 muscarinic cholinergic receptor: displacement of tritiated N-methylscopolamine (3H-NMS) on homogenized smooth muscle of guinea-pig ileum; assay type: binding; details: displacement of 3H-NMS, 30° C., 20 minutes
T1 construct: studies in vitro on homogenized smooth muscle of guinea-pig ileum; from tissue; host or cells: guinea-pig ileum smooth muscle homogenate
T1 sequence (H0VRN8 1-466): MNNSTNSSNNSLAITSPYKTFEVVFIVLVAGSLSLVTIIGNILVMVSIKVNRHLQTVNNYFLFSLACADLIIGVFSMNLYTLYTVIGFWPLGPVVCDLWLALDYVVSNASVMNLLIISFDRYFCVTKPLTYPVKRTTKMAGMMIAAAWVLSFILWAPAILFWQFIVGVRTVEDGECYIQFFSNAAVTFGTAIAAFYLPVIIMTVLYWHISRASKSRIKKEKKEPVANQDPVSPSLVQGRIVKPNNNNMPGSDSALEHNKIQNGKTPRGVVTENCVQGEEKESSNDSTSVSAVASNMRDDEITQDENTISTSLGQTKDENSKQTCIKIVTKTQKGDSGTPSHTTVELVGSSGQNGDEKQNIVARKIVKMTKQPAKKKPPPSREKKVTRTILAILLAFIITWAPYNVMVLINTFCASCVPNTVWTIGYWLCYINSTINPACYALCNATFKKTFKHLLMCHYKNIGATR
Description: BIOCHEMICAL STUDY IN VITRO
M1 type receptors are concentrated in certain zones of the brain such as the hippocampus, the cerebral cortex, the corpus striatum and the sympathetic ganglia. These connection sites can be selectively tagged with tritiated pirenzepine (^3 H--PZ). Type M2 receptors predominate in the heart and the ileum and can be tagged with tritiated N-methylscopolamine (^3 H--NMS). In order to determine the selectivity of the products according to the invention, with regard to sites M1 and M2, a study was made of their interaction in vitro, with high-affinity tagging with ^3 H--PZ and ^3 H--NMS, on rat hippocampus membranes and smooth muscle from guinea-pig ileum respectively.
b) Search for an affinity for the type M2 muscarinic cholinergic receptor
Interaction with type M2 muscarinic receptors was studies in vitro on homogenized smooth muscle of guinea-pig ileum by measuring the displacement of tritiated N-methyl-scopolamine from its specific tagging sites. 50 μl portions of homogenized smooth muscle form guinea-pig ileum (0.625% w/v) in 20 mM of HEPES buffer: 2-((2-hydroxy 4-ethyl) piperazin-1-yl) ethanesulphonic acid containing NaCl (100 mM) and Mg Cl2 (10 mM) (final pH=7.5) were incubated at 30° C. for 20 minutes int eh presence of ^3 H--NMS (85 Ci/mmol/0.3 nM final) with increasing concentrations of the products under test. The final volume was 1 ml. The reaction was stopped by centrifuging for 5 minutes at 15000 g. Non-specific tagging was determined in the presence of […] of atropine sulphate.
The results are expressed as 50% inhibiting concentrations (IC50), i.e. the concentration (in μM) which induces a 50% displacement of the tritiated ligand fixed to the membrane receptors. The IC50 displacement of ^3 H--PZ represents affinity for the M1 receptor, and
The IC50 displacement of ^3 H--NMS represents affinity for the M2 receptor.

pIC50	Compound
4.10	CNC1CCN(c2nnc(-c3ccccc3)s2)CC1 [SR 44825 A, 2-(4-methylaminopiperidino)-5-phenyl-1,3,4-thiadiazole dihydrochloride]

system: M1 central muscarinic cholinergic receptors; assay: Antagonism to rotatory behaviour induced by intrastriatal injection of pirenzepine in the mouse; assay type: in vivo, mouse (female, Swiss, CD 1); details: 0,3 mg/kg p.o., 4 hours before pirenzepine 1 μg intrastriatal; *p<0.05, **p<0.01 Student's test
Description: Intrastriatal injection of PZ into the mouse induces rotatory behaviour. Antagonism to this behaviour by the products according to the invention was studied.
The products according to the invention were administered in doses of 0.3 or 3 mg/kg orally after being solubilized in distilled water or suspended in a 5% solution of gum arabic. The controls were given pure solvent under the same conditions.
The animals used were female mice (Swiss, CD 1, Charles River, France), body weight between 25 and 30 grams.
Pirenzepine was dissolved in a phosphate buffer, the pH of the solution being 6.
The products under study or solvents thereof were orally administered, using a probang, in a volume of 0.4 ml per 20 g body weight.
The number of contralateral rotations (in the opposite direction to the side of the injection) was counted for three 2-minute periods after injection of pirenzepine (minutes 2-4, 8-10 and 13-15) and was then totalled for each animal. Each treatment comprised three to four doses and ten animals per dose. For each treatment, the total number of rotations and the percentage inhibition relative to the control batch (solvent) was calculated.

Compound	% inhibition of pirenzepine-induced rotations
FC(F)(F)c1cccc(-c2nnc(NCCN3CCOCC3)s2)c1 [B, reference compound]	Inactive

same assay, conditions: 3 mg/kg p.o., 4 hours before pirenzepine 1 μg intrastriatal; *p<0.05, **p<0.01 Student's test

Compound	% inhibition of pirenzepine-induced rotations
FC(F)(F)c1cccc(-c2nnc(NCCN3CCOCC3)s2)c1 [B, reference compound]	Inactive

same assay, conditions: Mus musculus, po; 3 mg/kg p.o., 4 hours before pirenzepine 1 μg intrastriatal; *p<0.05, **p<0.01 Student's test; read-out: % inhibition of pirenzepine-induced rotations

Compound	change in vivo at 3 mg/kg
CN(C)CCNc1nnc(-c2ccccc2)s1 [C, reference compound]	-12%
CCN(CC)CCCNc1nnc(-c2ccc(Cl)cc2Cl)s1 [SR 45481 A]	-67%
Clc1ccc(-c2nnc(NCCCn3ccnc3)s2)c(Cl)c1 [SR - A]	-60%
Clc1ccc(-c2nnc(NCc3cccnc3)s2)cc1 [SR 45488 A]	-49%
CN(C)CCCNc1nnc(-c2ccc(F)cc2)s1 [SR 45421 A]	-38%
CN1CCCC1CCNc1nnc(-c2ccc(Cl)cc2Cl)s1 (centres unmarked) [SR 45490 A]	-73%
Clc1ccc(-c2nnc(NCCc3ccccn3)s2)c(Cl)c1 [SR 45492 A]	-50%
Fc1ccc(-c2nnc(NCc3ccncc3)s2)cc1 [SR 45482 A]	-53%
Fc1ccc(-c2nnc(NCc3cccnc3)s2)cc1 [SR 45447 A]	-62%
Cc1cc(C)c(-c2nnc(NCc3cccnc3)s2)c(C)c1 [SR 45417 A]	-43%
CN1CCCC(CNc2nnc(-c3ccc(Cl)cc3)s2)C1 (centres unmarked) [SR 45491 A, 2-[(N-methyl 3-piperidyl)methylamino]-5-(4-chlorophenyl)-1,3,4-thiadiazoledihydrochloride]	-57%
CN(Cc1cccnc1)c1nnc(-c2ccc(F)cc2)s1 [SR 45530 A]	-41%
c1ccc(-c2nnc(NCCN3CCOCC3)s2)cc1 [A, reference compound]	-8%
Clc1ccc(-c2nnc(NCc3cccnc3)s2)c(Cl)c1 [SR 45459 A]	-29%
